# Publication PMC5386833 (Oncogene, 2016)
# Target: BRCA1/BARD1 (Homo sapiens, UniProt P38398+Q99728)
# Test: ReBiL luminescence protein interaction assay, BRCA1/BARD1 negative control
# Conditions: dosing above 10 μM, 10% serum
# BRCA1/BARD1, sequence (P38398 whole entry, species assumed): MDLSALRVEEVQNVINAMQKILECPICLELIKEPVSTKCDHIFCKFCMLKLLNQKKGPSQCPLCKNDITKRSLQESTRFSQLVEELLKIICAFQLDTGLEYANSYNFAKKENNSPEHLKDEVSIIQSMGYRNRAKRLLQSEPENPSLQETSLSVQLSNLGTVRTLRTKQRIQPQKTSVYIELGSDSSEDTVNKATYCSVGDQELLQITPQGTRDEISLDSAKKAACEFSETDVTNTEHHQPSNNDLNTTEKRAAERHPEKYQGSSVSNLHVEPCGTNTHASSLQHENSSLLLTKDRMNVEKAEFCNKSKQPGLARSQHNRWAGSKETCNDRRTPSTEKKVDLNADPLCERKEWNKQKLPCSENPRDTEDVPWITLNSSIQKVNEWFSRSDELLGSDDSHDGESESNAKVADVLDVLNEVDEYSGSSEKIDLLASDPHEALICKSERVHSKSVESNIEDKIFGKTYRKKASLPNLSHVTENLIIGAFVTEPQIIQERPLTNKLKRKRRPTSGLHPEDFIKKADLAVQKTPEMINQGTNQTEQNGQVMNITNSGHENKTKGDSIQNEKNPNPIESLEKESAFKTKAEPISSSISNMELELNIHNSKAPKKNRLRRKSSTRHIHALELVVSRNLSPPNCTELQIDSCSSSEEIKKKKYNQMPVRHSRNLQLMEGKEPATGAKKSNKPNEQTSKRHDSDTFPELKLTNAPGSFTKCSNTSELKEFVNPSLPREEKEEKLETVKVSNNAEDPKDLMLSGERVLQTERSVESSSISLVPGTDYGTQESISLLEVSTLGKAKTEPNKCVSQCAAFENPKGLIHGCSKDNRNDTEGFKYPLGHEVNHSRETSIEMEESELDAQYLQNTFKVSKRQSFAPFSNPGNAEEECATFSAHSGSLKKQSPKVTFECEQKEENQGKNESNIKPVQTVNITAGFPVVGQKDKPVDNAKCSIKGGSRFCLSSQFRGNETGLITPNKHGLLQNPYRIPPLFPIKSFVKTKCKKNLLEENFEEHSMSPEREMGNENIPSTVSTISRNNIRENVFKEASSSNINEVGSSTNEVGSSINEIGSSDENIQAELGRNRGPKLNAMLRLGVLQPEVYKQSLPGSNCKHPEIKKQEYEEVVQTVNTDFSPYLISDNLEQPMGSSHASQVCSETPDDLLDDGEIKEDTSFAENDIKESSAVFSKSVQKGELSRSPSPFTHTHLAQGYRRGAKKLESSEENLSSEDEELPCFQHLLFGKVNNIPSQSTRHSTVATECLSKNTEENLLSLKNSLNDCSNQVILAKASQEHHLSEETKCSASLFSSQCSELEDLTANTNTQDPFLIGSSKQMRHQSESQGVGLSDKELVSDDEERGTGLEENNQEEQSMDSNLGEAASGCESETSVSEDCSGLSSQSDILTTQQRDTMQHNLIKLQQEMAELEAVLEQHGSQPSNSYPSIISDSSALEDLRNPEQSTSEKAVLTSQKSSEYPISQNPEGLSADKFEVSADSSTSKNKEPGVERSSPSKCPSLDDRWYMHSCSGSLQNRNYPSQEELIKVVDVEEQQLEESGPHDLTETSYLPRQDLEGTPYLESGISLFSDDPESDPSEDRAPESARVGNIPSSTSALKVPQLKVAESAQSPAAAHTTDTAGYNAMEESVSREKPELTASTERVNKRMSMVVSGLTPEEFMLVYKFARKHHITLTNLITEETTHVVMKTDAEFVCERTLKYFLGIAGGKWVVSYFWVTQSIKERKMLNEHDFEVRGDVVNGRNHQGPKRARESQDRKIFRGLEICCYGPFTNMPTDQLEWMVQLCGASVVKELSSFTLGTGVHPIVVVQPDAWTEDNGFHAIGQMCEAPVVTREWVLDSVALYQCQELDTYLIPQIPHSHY
# BRCA1/BARD1, sequence (Q99728 whole entry, species assumed): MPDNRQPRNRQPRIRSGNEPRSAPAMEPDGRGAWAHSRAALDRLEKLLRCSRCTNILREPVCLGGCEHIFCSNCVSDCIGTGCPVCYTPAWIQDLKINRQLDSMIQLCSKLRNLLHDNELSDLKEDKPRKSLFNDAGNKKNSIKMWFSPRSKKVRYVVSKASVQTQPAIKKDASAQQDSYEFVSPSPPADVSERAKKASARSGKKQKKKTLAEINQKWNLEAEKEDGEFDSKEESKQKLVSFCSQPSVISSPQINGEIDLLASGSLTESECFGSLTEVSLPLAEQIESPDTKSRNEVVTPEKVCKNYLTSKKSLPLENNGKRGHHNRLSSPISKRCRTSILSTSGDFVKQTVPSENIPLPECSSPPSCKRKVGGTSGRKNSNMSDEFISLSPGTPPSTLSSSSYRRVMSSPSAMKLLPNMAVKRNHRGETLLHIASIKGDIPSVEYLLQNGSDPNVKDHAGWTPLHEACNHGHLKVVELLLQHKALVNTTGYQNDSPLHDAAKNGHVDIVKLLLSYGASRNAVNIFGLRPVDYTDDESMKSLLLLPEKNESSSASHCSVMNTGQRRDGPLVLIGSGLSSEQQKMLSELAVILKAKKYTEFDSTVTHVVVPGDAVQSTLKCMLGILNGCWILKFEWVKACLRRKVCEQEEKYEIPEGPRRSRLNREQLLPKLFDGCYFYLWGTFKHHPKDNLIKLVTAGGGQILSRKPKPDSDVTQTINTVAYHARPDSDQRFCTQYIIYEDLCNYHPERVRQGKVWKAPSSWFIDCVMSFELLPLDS
smiles,measurement,value
COc1ccc(C2=N[C@@H](c3ccc(Cl)cc3)[C@@H](c3ccc(Cl)cc3)N2C(=O)N2CCNC(=O)C2)c(OC(C)C)c1 [Nutlin-3a],ReBiL signal suppression in BRCA1/BARD1 cell line above 10 μM,nonspecific activity
